Laboratory results published in US20210261636A1, “NEOANTIGENS EXPRESSED IN MULTIPLE MYELOMA AND THEIR USES” (Janssen Biotech, Inc., priority 2020, published 2021).

Legend:
CD4+ T cells = assay: Exogenous autologous healthy donor restimulation assay, TNFα and IFNγ production by CD4+ T cells; format: cell-based, human; design: Frequency (TNFα+ IFNγ+ CD4 T cells): unit not given here; details: donor independent, peptide pool 10 μg/mL, healthy donors; for Fold change (CD4+) vs. DMSO: maximum CD4+ T-cell response (TNFα and IFNγ); for Frequency (TNFα+ IFNγ+ CD4 T cells): maximum CD4+ T-cell response
In short: (§1)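 CD1c+ DCs from healthy donor PBMCs pulsed 2 h with 15-mer overlapping neoantigen peptide pools (10 μg/mL), irradiated 50 Gy, then co-cultured 12 days with autologous CD3+ T cells plus IL-15/IL-2. Restimulated day 11 with same pools, overnight with protein inhibitor; intracellular TNFα/IFNγ by flow. Positive: ≥3-fold over DMSO and ≥0.01% double-positive.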

CD8+ T cells = assay: Exogenous autologous healthy donor restimulation assay, TNFα and IFNγ production by CD8+ T cells; format: cell-based, human; design: Frequency (TNFα+ IFNγ+ CD8 T cells): unit not given here; details: for Fold change (CD8+) vs. DMSO: maximum CD8+ T-cell response (TNFα and IFNγ); for Fold change (CD8+) vs. DMSO / Frequency (TNFα+ IFNγ+ CD8 T cells): donor independent, peptide pool 10 μg/mL, healthy donors; for Frequency (TNFα+ IFNγ+ CD8 T cells): maximum CD8+ T-cell response; for Immunogenic (yes/no): positive if CD8+ and/or CD4+ double positive TNFα/IFNγ frequency >=3-fold over DMSO and at least 0.01%
In short: as §1

## KKEDVNFQVKQLIH [AS96, alternative splicing, ANKRD28]
CD4+ T cells
  Fold change (CD4+) vs. DMSO: 5.47
  Frequency (TNFα+ IFNγ+ CD4 T cells): 0.027
CD8+ T cells
  Fold change (CD8+) vs. DMSO: 7.34
  Frequency (TNFα+ IFNγ+ CD8 T cells): 0.15
  Immunogenic (yes/no): Yes

## TAILFTRQQSKALPSLGITNRHGFWAGQGNTVMHGRDSDGKQVKGTVVILAQGAFHQ [AS109, alternative splicing, ADAMTS15]
CD4+ T cells
  Fold change (CD4+) vs. DMSO: 42.23
  Frequency (TNFα+ IFNγ+ CD4 T cells): 0.064
CD8+ T cells
  Fold change (CD8+) vs. DMSO: 4.15
  Frequency (TNFα+ IFNγ+ CD8 T cells): 0.019
  Immunogenic (yes/no): Yes

## GKSTPPRKEIFDDASP [FUS11, gene fusion GAB1-> SMARCA5]
CD4+ T cells
  Fold change (CD4+) vs. DMSO: 11.4
  Frequency (TNFα+ IFNγ+ CD4 T cells): 0.008
CD8+ T cells
  Fold change (CD8+) vs. DMSO: 7.36
  Frequency (TNFα+ IFNγ+ CD8 T cells): 0.013
  Immunogenic (yes/no): Yes

## PRDNHTDHENPRGSDGQGRWKCPSQVTYIRRTLM [FUS16, gene fusion UBE2J1-> GABRR2]
CD4+ T cells
  Fold change (CD4+) vs. DMSO: 4.388
  Frequency (TNFα+ IFNγ+ CD4 T cells): 0.027
CD8+ T cells
  Fold change (CD8+) vs. DMSO: 8.86
  Frequency (TNFα+ IFNγ+ CD8 T cells): 0.12
  Immunogenic (yes/no): Yes

## GTTRLLSGEDFS [AS111, alternative splicing, CD55]
CD4+ T cells
  Fold change (CD4+) vs. DMSO: 16.71
  Frequency (TNFα+ IFNγ+ CD4 T cells): 0.06
CD8+ T cells
  Fold change (CD8+) vs. DMSO: 1.16
  Frequency (TNFα+ IFNγ+ CD8 T cells): 0.012
  Immunogenic (yes/no): Yes

## IENEGGQVRSRPAPS [AS56, alternative splicing, ADGRE5]
CD4+ T cells
  Fold change (CD4+) vs. DMSO: 3.71
  Frequency (TNFα+ IFNγ+ CD4 T cells): 0.019
CD8+ T cells
  Fold change (CD8+) vs. DMSO: 5
  Frequency (TNFα+ IFNγ+ CD8 T cells): 0.069
  Immunogenic (yes/no): Yes

## LDQCVETLCSLSKSD [FUS44, gene fusion ZGPAT-> LIME1]
CD4+ T cells
  Fold change (CD4+) vs. DMSO: 4.8
  Frequency (TNFα+ IFNγ+ CD4 T cells): 0.024
CD8+ T cells
  Fold change (CD8+) vs. DMSO: 4.82
  Frequency (TNFα+ IFNγ+ CD8 T cells): 0.097
  Immunogenic (yes/no): Yes

## NAVRSYYEGTENIVAV [FUS18, gene fusion CADPS2-> RNF148]
CD4+ T cells
  Fold change (CD4+) vs. DMSO: 0.95
  Frequency (TNFα+ IFNγ+ CD4 T cells): 0.005
CD8+ T cells
  Fold change (CD8+) vs. DMSO: 542.51
  Frequency (TNFα+ IFNγ+ CD8 T cells): 0.671
  Immunogenic (yes/no): Yes

## EGTPFEDGKSYSLCFL [AS78, alternative splicing, UBE2B]
CD4+ T cells
  Fold change (CD4+) vs. DMSO: 3.14
  Frequency (TNFα+ IFNγ+ CD4 T cells): 0.024
CD8+ T cells
  Fold change (CD8+) vs. DMSO: 29.32
  Frequency (TNFα+ IFNγ+ CD8 T cells): 0.52
  Immunogenic (yes/no): Yes

## PVILFKGKVRPIP [AS67, alternative splicing, MTMR14]
CD4+ T cells
  Fold change (CD4+) vs. DMSO: 8.57
  Frequency (TNFα+ IFNγ+ CD4 T cells): 0.071
CD8+ T cells
  Fold change (CD8+) vs. DMSO: 28.23
  Frequency (TNFα+ IFNγ+ CD8 T cells): 0.52
  Immunogenic (yes/no): Yes

## ERSHSKKKDGLVRNDGPGFPPMFSTSENTNLD [AS54, alternative splicing, SETBP1]
CD4+ T cells
  Fold change (CD4+) vs. DMSO: 90.535
  Frequency (TNFα+ IFNγ+ CD4 T cells): 0.033
CD8+ T cells
  Fold change (CD8+) vs. DMSO: 0.73
  Frequency (TNFα+ IFNγ+ CD8 T cells): 0.008
  Immunogenic (yes/no): Yes

## LVARPEIQIFMEEDVMKVE [AS124, alternative splicing, PDZRN4]
CD4+ T cells
  Fold change (CD4+) vs. DMSO: 7.31
  Frequency (TNFα+ IFNγ+ CD4 T cells): 0.064
CD8+ T cells
  Fold change (CD8+) vs. DMSO: 5.27
  Frequency (TNFα+ IFNγ+ CD8 T cells): 0.089
  Immunogenic (yes/no): Yes

## PPGGHSPQDLSIREIFCLGHKEVC [AS136, alternative splicing, ZNF592]
CD4+ T cells
  Fold change (CD4+) vs. DMSO: 10.86
  Frequency (TNFα+ IFNγ+ CD4 T cells): 0.07
CD8+ T cells
  Fold change (CD8+) vs. DMSO: 5.91
  Frequency (TNFα+ IFNγ+ CD8 T cells): 0.072
  Immunogenic (yes/no): Yes

## QILQQALKKLPFSLCITECETIAYHLARDSNGNLEL [AS131, alternative splicing, USP25]
CD4+ T cells
  Fold change (CD4+) vs. DMSO: 10.53
  Frequency (TNFα+ IFNγ+ CD4 T cells): 0.008
CD8+ T cells
  Fold change (CD8+) vs. DMSO: 299.44
  Frequency (TNFα+ IFNγ+ CD8 T cells): 0.53
  Immunogenic (yes/no): Yes

## QRDRDSIKVGLKIYRLRNGLKGL [AS76, alternative splicing, TLE4]
CD4+ T cells
  Fold change (CD4+) vs. DMSO: 224.35
  Frequency (TNFα+ IFNγ+ CD4 T cells): 0.34
CD8+ T cells
  Fold change (CD8+) vs. DMSO: 6.15
  Frequency (TNFα+ IFNγ+ CD8 T cells): 0.54
  Immunogenic (yes/no): Yes
